Data: patent publication US11642350B2, “Agent for preventing myopia, treating myopia, and/or preventing myopia progression comprising tiotropium as active ingredient” (priority 2017, dated 2023)
Counter-ions that a name gives are not always drawn.

Assays:
[1] = test system: Myopia Mice Model; assay: Suppression of axial length elongation in myopia mice model (spectacle lens-induced, eyedrop); format: in vivo, mice (C57BL/6J); details: 7 μL topically once a day, post-natal day 33 to 61, -15D lens, mouse
Protocol: Test 2. Test About Suppression of Axial Length Elongation in Myopia Mice Model
Tiotropium bromide hydrate and glycerin were dissolved in water for injection to prepare 0.0001% (w/v) and 0.01% (w/v) tiotropium ophthalmic solutions without adjusting pH.
In a similar way, atropine sulfate hydrate and glycerin were dissolved in water for injection to prepare 0.1% (w/v) atropine ophthalmic solution without adjusting pH. The vehicle (control) was isotonic water which was prepared with water for injection and glycerin.
Spectacle lens-induced myopia model was established by placing −15D hard lens on the right eye of mice (C57BL/6J), which was served as the experimental eye, at post-natal days 18. Briefly, a −15D lens was glued to an annulus (with 8 mm base curve) of Velcro. This mating piece was then attached to the Velcro that had been previously glued to the hair around the right experimental eye using a cyanoacrylate. An air gap of 1.5 mm existed between the back part of the lens and the anterior surface of the cornea.
Ocular biometry such as axial length measurement was done using in vivo Optical Low Coherence Interferometry (OLCI-AcMaster). The axial length was measured at post-natal days 33 and 61.
The ratio for suppressing the axial length elongation with each example was calculated by the following equation: […]
Tiotropium (at 0.0001% or 0.01%) or atropine (at 0.1%) was administered once a day post-natal day 33 until day 61 in the spectacle lens-induced myopia model. 7 μL of each drug was administered topically to the right eye in dim red light at the each day.

[2] = test system: Myopia Chick Model; assay: Suppression of axial length elongation in myopia chick model (goggle-induced, intravitreal administration); format: in vivo, chicks (white leghorns); details: 20 μL intravitreally on day 0, 2 and 4, axial length measured on day 6
Protocol: Test 1. Test About Suppression of Axial Length Elongation in Myopia Chick Model
Tiotropium bromide hydrate was dissolved in saline to prepare 0.1 mM and 10 mM tiotropium solutions.
And, atropine sulfate hydrate was dissolved in saline to prepare 100 mM atropine solution as a reference example.
As a control, saline was used.
A test tube having a diameter of 18 mm was cut off at the level of 10 mm from the bottom, and the cutting circle of the cut-off bottom part was bonded to a flat rubber packing with an adhesive agent to prepare a lens (goggle). 7-day-old chicks (white leghorns) were obtained, and the prepared goggle was attached to the right eye of each chick with an adhesive agent to induce myopia to the chicks. The left eye thereof was its control.
To each of the tiotropium administration groups, 20 μL of each prepared tiotropium solution was intravitreally administered on the day that the goggle was fixed (on day 0), on day 2, and on day 4. […]
On day 6 from the myopia induction, the axial length of right and left eyeballs was measured with a ultrasound axial length measurement ECHOSCAN US-500 (NIDEK CO., LTD.) (A-scan). The difference of axial lengths and the suppression rate of the axial length elongation were calculated by the following formulae.

[3] = test system: pupil diameter of the mice; assay: Evaluation of mydriatic action (pupil diameter after a single eyedrop); format: in vivo; details: mouse; for Pupil diameter before administration (mm): before the eyedrop (baseline); for Maximum pupil diameter (mm) / Measurement time of maximum pupil diameter: single dose 5 μL to both eyes; for Maximum pupil diameter (mm): longest average among 1, 2, 4 and 24 h
Protocol: Test 3. Evaluation of Mydriatic Action
Tiotropium bromide hydrate and glycerin were dissolved in water for injection to prepare 0.01% (w/v), 0.1% (w/v), and 2% (w/v) tiotropium ophthalmic solutions without adjusting pH.
In a similar way, atropine sulfate hydrate and glycerin were dissolved in water for injection to prepare 0.01% (w/v), and 0.1% (w/v) atropine ophthalmic solutions without adjusting pH.
A single dose (5 μL) of each prepared ophthalmic solution was administered to both eyes of mice (6 eyes of 3 mice per each ophthalmic solution). Before the administration (eyedrop), and 1, 2, 4 and 24 hours after the administration, each pupil diameter of the mice was measured. The measured pupil diameters of the mice at each measurement time per each test sample were averaged to obtain each average value as each average pupil diameter. Among each average pupil diameter at each measurement time, the longest diameter was defined as the maximum pupil diameter.

[4] = 0.01% (w/v) ophthalmic solution group
[5] = 0.01% (w/v) ophthalmic solution
[6] = 0.1% (w/v) ophthalmic solution group
[7] = 0.0001% (w/v) ophthalmic solution

Row | Structure (SMILES) | Mean (μm) change in the axial length ([1]; 0.1% (w/v) ophthalmic solution) | Suppression rate (%) of the axial length elongation ([1]; 0.1% (w/v) ophthalmic solution) | Suppression rate (%) of the axial length elongation ([2]; 100 mM atropine solution (reference example)) | Pupil diameter before administration (mm) [3, 4] | Maximum pupil diameter (mm) [3, 5] | Measurement time of maximum pupil diameter [3, 5] | Pupil diameter before administration (mm) [3, 6] | Maximum pupil diameter (mm) ([3]; 0.1% (w/v) ophthalmic solution) | Measurement time of maximum pupil diameter ([3]; 0.1% (w/v) ophthalmic solution) | Mean (μm) change in the axial length [1, 7] | Suppression rate (%) of the axial length elongation [1, 7] | Mean (μm) change in the axial length [1, 5] | Suppression rate (%) of the axial length elongation [1, 5] | Suppression rate (%) of the axial length elongation ([2]; 0.1 mM solution) | Pupil diameter before administration (mm) ([3]; 2% (w/v) ophthalmic solution group) | Maximum pupil diameter (mm) ([3]; 2% (w/v) ophthalmic solution) | Measurement time of maximum pupil diameter ([3]; 2% (w/v) ophthalmic solution)
1 | CN1[C@@H]2CC[C@H]1C[C@@H](OC(=O)C(CO)c1ccccc1)C2 (some centres unmarked) [atropine, atropine sulfate hydrate] | 111.61 μm | 29.50% | 83% | 0.42 mm | 1.43 mm | 1 h | 0.40 mm | 1.96 mm | 2 h | – | – | – | – | – | – | – | –
2 | C[N+]1(C)C2CC(OC(=O)C(O)(c3cccs3)c3cccs3)CC1C1OC12 (stereo not drawn) [tiotropium, (1α,2β,4β,5α,7β)-7-[(hydroxydi-2-thienylacetyl)oxy]-9,9-dimethyl-3-oxa-9-azoniatricyclo[3.3.1.0^2,4]nonane bromide monohydrate] | – | – | – | 0.36 mm | 1.24 mm | 4 h | 0.43 mm | 2.23 mm | 2 h | 135.84 μm | 14.20% | 112.95 μm | 28.66% | 45% | 0.36 mm | 2.15 mm | 1 h
